Tests used:
MV4-11 cells [1] = test: qPCR analyses of gene expression changes in TKI-treated MV4-11; assay type: cell-based, human
Excerpt: MV4-11 cells (3 days after TKI treatment) were harvested and analyzed by reverse transcription quantitative polymerase chain reaction (qPCR). The qPCR data of four genetic aspects including cell death, kinases specialized in phosphorylation of BAD, JAK/STAT signaling pathway, and intrinsic inhibitory pathways were compared. […] Next, to investigate which kinases are responsible for the phosphorylation of BAD (pBAD) after TKI treatment, screenings of those kinase candidates reported to phosphorylate BAD under physiological conditions were conducted. […] Elevated gene expressions of both PIM2 and PIM3 have been found in adult AML patients associated with poor survival.
(§1) Small Molecular Inhibitors and in vitro & ex vivo Treatment. […] The dose of 80 nM for the four TKIs was selected based on their dose-dependent cytotoxicity in previous reports. […] Both GILT and QUIZ were reported to start to suppress the tumorigenic clustering and c-Kit at the dose of 80 nM. […] The combination of 5 μM 5-Azacitidine (AZA) and 80 nM 1α,25-Dihydroxyvitamin D3 (VD3) was added to the experimental group similar to the previous report. As combination agents to treat blasts in vitro, one dose of 80 nM GILT with one dose of either 100 nM Venetoclax (BCL2 inhibitor), 10 μM (R)-Lisofylline (STAT4 inhibitor), 100 nM AZD1208 (PIM inhibitor), 500 nM PF-06826647 (TYK2 inhibitor), or 500 nM AT9283 (JAK2/3 inhibitor) were added to 1 ml of 1×10^6 cells for each experimental group in 24 well plates. Three days after the one dose treatment, cells were then collected for either analyses by FACS and qPCR, or re-plated into 24 well plates for continued culture. At different time points, re-plated cells were collected for analyses by FACS and qPCR. Medium change was performed every 2-3 days.
RNA Isolation and Real-Time Polymerase Chain Reaction (qPCR) analysis. MV4-11 and MOLM-14 cells were cultured with the presence of TKI drugs for 72 hours or re-plated 28 days after the treatment of TKI drugs. Cells were isolated for RNA isolation and qPCR analysis as previously described. Total RNA was isolated using the RNeasy Micro Kit (Qiagen) according to the manufacturer's instruction. First-strand cDNA was synthesized using the SuperScript III Reverse Transcriptase (Invitrogen; Life Technologies). With an Applied Biosystems 7900HT Real-Time PCR machine, qPCR was performed and analyzed using known primers for the specific markers. The PCR conditions were 10 minutes at 95° C. followed by 40 cycles of 10 seconds at 95° C. and 15 seconds at 60° C. The relative expression level of a gene was determined using the ΔΔCt method and normalized to GAPDH.

MV4-11 cells [2] = test: FACS time course of CD44+pBAD+ and Ki67+CD33+CD44+ populations in TKI-treated MV4-11; assay type: cell-based, human
Excerpt: To follow the cell fate of TKI-treated MV4-11 and MOLM-14, culturing of blasts were continued by performing medium change every 2-3 days. […] The BAD protein is a pro-apoptotic member of the BCL-2 gene family, which is involved in initiating apoptosis. Dephosphorylated BAD is pro-apoptotic by binding BCL-2 and inactivating BCL-2, while phosphorylated BAD (pBAD) is anti-apoptotic by leaving BCL-2 free to inhibit BAX-triggered apoptosis.
as §1
Flow Cytometry (FACS). Cells were harvested and examined for the expression of cell surface biomarkers (CD) and intracellular proteins by multichromatic FACS as previously described. About 1×10^4˜10^6 cells in 100 μl FACS buffer (PBS containing 1% FBS and 0.05% sodium azide) were stained with various fluorescence-conjugated antibodies specific for the desired cell surface proteins at 4° C. for 30 min. The surface-stained cells were then fixed and permeabilized using the appropriate reagents (e.g. the BD Pharmingen Cytofix/Cytoperm buffer) and stained with different fluorescence-conjugated antibodies specific for the desired intracellular proteins at 4° C. for 2 hours in the permeabilizing buffer (e.g. the BD Perm/Wash buffer). Concentrations of the Abs were used per the manufacturers' recommendations. Finally, the cells were washed twice in the permeabilizing buffer and twice in the FACS buffer before being analyzed on the BD FACSAria II. Data was analyzed using the FlowJo software (Tree Star Inc., Ashland, OR).

[3] = MV4-11, 3 days after TKI treatment, vs control
[4] = MV4-11, 3 days after TKI treatment, vs control non-treatment cells
[5] = MV4-11, 10 days after TKI treatment
[6] = MV4-11, 20 days after TKI treatment
[7] = MV4-11, 10 days after TKI treatment, vs non-treatment control
[8] = MV4-11, 28 days after the treatment
[9] = MV4-11, 28 days after the treatment, vs control non-treatment cells
[10] = MV4-11, 28 days after TKI treatment

SMILES	BAD mRNA increase (MV4-11 cells [1]; [4])	BAX mRNA increase (MV4-11 cells [1]; [4])	BCL-2 mRNA increase (MV4-11 cells [1]; [4])	JAK2 mRNA increase (MV4-11 cells [1]; [4])	PIAS2 mRNA increase (MV4-11 cells [1]; [4])	PIM2 mRNA increase (MV4-11 cells [1]; [4])	PIM3 mRNA increase (MV4-11 cells [1]; [4])	SHP1 mRNA increase (MV4-11 cells [1]; [4])	SHP2 mRNA increase (MV4-11 cells [1]; [4])	SOCS1 mRNA increase (MV4-11 cells [1]; [4])	SOCS3 mRNA increase (MV4-11 cells [1]; [4])	STAT2 mRNA increase (MV4-11 cells [1]; [4])	STAT4 mRNA increase (MV4-11 cells [1]; [4])	TYK2 mRNA increase (MV4-11 cells [1]; [4])	population of viable CD44+pBAD+ cells (MV4-11 cells [2]; [5])	population of viable Ki67+CD33+CD44+ cells (MV4-11 cells [2]; [5])	population of viable CD44+pBAD+ cells (MV4-11 cells [2]; [6])	population of viable Ki67+CD33+CD44+ cells (MV4-11 cells [2]; [6])	further results
CCc1nc(C(N)=O)c(Nc2ccc(N3CCC(N4CCN(C)CC4)CC3)c(OC)c2)nc1NC1CCOCC1 [GILT, Gilteritinib]	23 fold	68 fold	49 fold	6 fold	about 2 fold	203 fold	134 fold	about 4 fold	9 fold	153 fold	182 fold	9 fold	23 fold	71 fold	28.7%	17.4%	1.1%	1.27%	NFκB2 mRNA increase (MV4-11 cells [1]; MV4-11, 80 nM TKI, vs non-treated control): 110 fold; CXCR2 mRNA increase (MV4-11 cells [1]; MV4-11, 3 days after TKI treatment): 109 fold; AKT1 mRNA increase (MV4-11 cells [1]; [3]): 10 fold; PRKACA mRNA increase (MV4-11 cells [1]; [3]): 15 fold; STAT3 mRNA increase (MV4-11 cells [1]; [4]): 2 fold; STAT5A mRNA increase (MV4-11 cells [1]; [4]): 4 fold; CXCR1 mRNA increase (MV4-11 cells [1]; MV4-11, 3 days after TKI treatment, data not shown): about 90 fold
CC(C)(C)c1cc(NC(=O)Nc2ccc(-c3cn4c(n3)sc3cc(OCCN5CCOCC5)ccc34)cc2)no1 [QUIZ, Quizartinib]	16 fold	44 fold	31 fold	6 fold	about 2 fold	120 fold	81 fold	about 3 fold	5 fold	88 fold	120 fold	6 fold	19 fold	46 fold	93.1%	68.2%	20.7%	52.8%	PIM1 mRNA decrease (MV4-11 cells [1]; [4]): 0.5 fold; PIAS2 mRNA increase (MV4-11 cells [1]; [7]): 570 fold; PIM2 mRNA increase (MV4-11 cells [1]; [7]): 355 fold; PIM3 mRNA increase (MV4-11 cells [1]; [7]): 494 fold; SHP2 mRNA increase (MV4-11 cells [1]; [7]): 9 fold; SOCS1 mRNA increase (MV4-11 cells [1]; [7]): 615 fold; SOCS3 mRNA increase (MV4-11 cells [1]; [7]): 590 fold; STAT2 mRNA increase (MV4-11 cells [1]; [7]): 14 fold; STAT4 mRNA increase (MV4-11 cells [1]; [7]): 28 fold; TYK2 mRNA increase (MV4-11 cells [1]; [7]): 73 fold; PIM2 mRNA increase (MV4-11 cells [1]; [8]): about 2 fold; PIM3 mRNA increase (MV4-11 cells [1]; [8]): about 2 fold; CISH mRNA increase (MV4-11 cells [1]; [9]): about 2 fold; SOCS1 mRNA increase (MV4-11 cells [1]; [9]): ~4 fold; SOCS3 mRNA increase (MV4-11 cells [1]; [9]): about 2 fold; population of viable CD44+pBAD+ cells (MV4-11 cells [2]; [10]): 0.24%; population of viable Ki67+CD33+CD44+ cells (MV4-11 cells [2]; [10]): 1.58%

— patent US20250123282A1, “METHODS FOR EVALUATION AND TREATMENT OF TYROSINE KINASE INHIBITOR (TKI)-RESISTANT ACUTE MYELOID LEUKEMIA” (LOMA LINDA UNIVERSITY, priority 2021, published 2025)
